A word on the melting point: it is the temperature, or range, at which the solid turns liquid. A word on the CC50: it is the concentration giving 50% cytotoxicity. A low value points to harm at low concentration. In general, IC50 refers to the concentration at which inhibition is half-maximal.

Data set [1] is described as follows: Cytotoxicity in mock-infected MT-4 cells (MTT). Type of data set: cell-based. Conditions: human; mock-infected MT-4 cells, absorbance reduced by 50%, MTT. As to the method: A rapid and automated assay procedure was used for the in vitro evaluation of anti-HIV agents. An HTLV-1 transformed T4-cell line MT-4, which was previously shown to be highly susceptible to and permissive for HIV infection, served as the target cell line. Inhibition of the HIV-induced cytopathogenic effect was used as the end point. The viabitlity of both HIV-and mock-infected cells was assessed spectrophotometrically via in situ reduction of 3-(4,5-dimethylthiazol-2-yl)-2,5-diphenyltetrazolium bromide (MTT). The 50% cytotoxic concentration (CC50 in μg/ml) was defined as the concentration of compound that reduced the absorbance of the mock-infected control sample by 50%. The percent protection achieved by the compound in HIV-infected cells was calculated by the following formula: Examples of inhibition of cell proliferation by particular compounds of formula (I) can be found by looking at the respective CC50 values in the MT-4 cell line. Cells: MT-4 cells (Miyoshi et al., 1982) were grown and maintained in RPMI 1640 medium supplemented with 10% heat-inactivated fetal calf serum, 2 mM […], 0.1% sodium bicarbonate, and 20 œg of gentamicin per ml.

Data set [2] deals with HIV-2 (ROD). The data set is described as follows: Inhibition of HIV-induced cytopathogenic effect in MT-4 cells (MTT), HIV-2. Type of data set: cell-based. Conditions: for IC50: Human immunodeficiency virus 2, MT4, 50% protection against HIV-induced cytopathogenic effect, MT-4 cells, MTT; for HIV-2 (ROD) SI: selectivity index = ratio of CC50 to IC50, HIV-2. As to the method:
(§1) A rapid and automated assay procedure was used for the in vitro evaluation of anti-HIV agents. An HTLV-1 transformed T4-cell line MT-4, which was previously shown to be highly susceptible to and permissive for HIV infection, served as the target cell line. Inhibition of the HIV-induced cytopathogenic effect was used as the end point. The viabitlity of both HIV-and mock-infected cells was assessed spectrophotometrically via in situ reduction of 3-(4,5-dimethylthiazol-2-yl)-2,5-diphenyltetrazolium bromide (MTT). The 50% cytotoxic concentration (CC50 in μg/ml) was defined as the concentration of compound that reduced the absorbance of the mock-infected control sample by 50%. The percent protection achieved by the compound in HIV-infected cells was calculated by the following formula:
(§2) [formula] whereby (ODT)HIV is the optical density measured with a given concentration of the test compound in HIV-infected cells; (ODC)HIV is the optical density measured for the control untreated HIV-infected cells; (ODC)MOCK is the optical density measured for the control untreated mock-infected cells; all optical density values were determined at 540 nm. The dose achieving 50% protection according to the above formula was defmed as the 50% inhibitory concentration (IC50 in μg/ml). The ratio of CC50 to IC50 was defined as the selectivity index (SI).
(§3) Cells: MT-4 cells (Miyoshi et al., 1982) were grown and maintained in RPMI 1640 medium supplemented with 10% heat-inactivated fetal calf serum, 2 mM 1-glutamine, 0.1% sodium bicarbonate, and 20 œg of gentamicin per ml.
(§4) Viruses: The HIV-1(NL4.3) strain (Adachi et al., 1986) is a molecular clone obtained from the National Institutes of Health (Bethesda, Md.). The HIV-2(ROD) (Barr,-Sinoussi et al., 1983) stock was obtained from culture supernatant of HIV-2 infected cell lines.
On the technique in general: Cytopathic effects are the visible damage that an infection or toxin causes in cultured cells.

Data set [3] concerns HIV-1 (NL4.3 WT). The data set is described as follows: Inhibition of HIV-induced cytopathogenic effect in MT-4 cells (MTT), HIV-1. Type of data set: cell-based. Particulars: for IC50: Human immunodeficiency virus 1, MT4, 50% protection against HIV-induced cytopathogenic effect, MT-4 cells, MTT; for HIV-1 (NL4.3 WT) SI: selectivity index = ratio of CC50 to IC50, HIV-1. As to the method:
as §1, §2, §3, §4

Converted amounts (≈) assume the structure as drawn. Where only a bound is given, the exact number is not on record here.

With `CSc1nc(C)c(-c2ccccc2)n1Nc1cccc(Cl)c1`, the melting point turned out to be 215 °C.

With `Cc1nc(SCc2ccccc2)n(Nc2cccc(Cl)c2)c1-c1ccccc1`, the melting point amounted to 130 °C.

With `Cc1[nH]c(=S)n(Nc2cccc(Cl)c2)c1-c1ccccc1` [Compound 9.01, 1-(3-Chlorophenylamino)-2,3-dihydro-4-methyl-5-phenyl-1H-imidazole-2-thione], the melting point lay in the range of 215 to 217 °C. The same molecule showed a cytotoxic concentration (CC50) in data set [1] of 21.5 µg/mL (≈ 68.1 µM). Moreover, in data set [2], the IC50 was determined as 2.6 µg/mL (≈ 8.23 µM) and the “HIV-2 (ROD) SI” value turned out to be 8.4. Besides, in data set [3], the IC50 is 2.8 µg/mL (≈ 8.87 µM) and the “HIV-1 (NL4.3 WT) SI” value amounted to 7.6.

The molecule `Cc1[nH]c(=S)n(Nc2ccccc2Cl)c1-c1ccccc1` [Compound 9.02, 1-(2-Chlorophenylamino)-2,3-dihydro-4-methyl-5-phenyl-1H-imidazole-2-thione] registered a melting point of 220 to 221 °C. The CC50 in data set [1] amounted to 65 µg/mL (≈ 206 µM). For the same molecule, in data set [2], the IC50 was over 65 µg/mL and the “HIV-2 (ROD) SI” value was under 1. Besides, in data set [3], the half-inhibitory concentration (IC50) is 7.4 µg/mL (≈ 23.4 µM) and the “HIV-1 (NL4.3 WT) SI” value is 9.0.

The molecule `Cc1[nH]c(=S)n(Nc2ccc(F)cc2)c1-c1ccccc1` [Compound 9.03, 2,3-Dihydro-1-(4-fluorophenylamino)-4-methyl-5-phenyl-1H-imidazole-2-thione] registered a melting point of 228 °C.

`Cc1[nH]c(=S)n(Nc2ccc(Cl)cc2)c1-c1ccccc1` [Compound 9.04, 1-(4-Chlorophenylamino)-2,3-dihydro-4-methyl-5-phenyl-1H-imidazole-2-thione] displayed a melting point of 212 to 214 °C.

As for `Cc1[nH]c(=S)n(Nc2cccc(Cl)c2)c1-c1cccc(Br)c1` [Compound 9.05, 5-(3-Bromophenyl)-1-(3-chlorophenylamino)-2,3-dihydro-4-methyl-1H-imidazole-2-thione], the melting point is 196 °C. The half-maximal cytotoxic concentration (CC50) in data set [1] came to 22.9 µg/mL (≈ 58 µM). Further, in data set [2], the IC50 was 4.1 µg/mL (≈ 10.4 µM) and the “HIV-2 (ROD) SI” value was determined as 5.5. In data set [3], 2.2 µg/mL (≈ 5.57 µM) corresponded to half-maximal inhibition (IC50) and the “HIV-1 (NL4.3 WT) SI” value is on record as 10.4.

`Cc1[nH]c(=S)n(Nc2cccc(Cl)c2)c1-c1cccc(Cl)c1` [Compound 9.07, 5-(3-Chlorophenyl)-1-(3-chlorophenylamino)-2,3-dihydro-4-methyl-1H-imidazole-2-thione]: the melting point was 204 °C. In addition, the CC50 in data set [1] came out at 15.9 µg/mL (≈ 45.4 µM). In data set [2], it took 1.4 µg/mL (≈ 4 µM) to reach half-maximal inhibition (IC50) and the “HIV-2 (ROD) SI” value is recorded as 11.6. Moreover, in data set [3], the 50% inhibitory concentration (IC50) turned out to be 0.9 µg/mL (≈ 2.57 µM) and the “HIV-1 (NL4.3 WT) SI” value was found to be 18.3.

As to `Cc1[nH]c(=S)n(Nc2cccc(Cl)c2)c1-c1ccc(Cl)cc1` [Compound 9.08, 5-(4-Chlorophenyl)-1-(3-chlorophenylamino)-2,3-dihydro-4-methyl-1H-imidazole-2-thione], the melting point stood at 225 °C.

In turn, `COc1ccc(-c2c(C)[nH]c(=S)n2Nc2cccc(Cl)c2)cc1` [Compound 9.09, 2,3-Dihydro-1-(3-chlorophenylamino)-5-(4-methoxyphenyl)-4-methyl-1H-imidazole-2-thione] gave a melting point of 226 °C.

With `Cc1c(-c2ccccc2)[nH]c(=S)n1Nc1cccc(Cl)c1` [Compound 9.10, 1-(3-Chlorophenylamino)-2,3-dihydro-5-methyl-4-phenyl-1H-imidazole-2-thione], the melting point is 238 °C.

As to `Cc1[nH]c(=S)n(Nc2cccc(Cl)c2)c1C` [Compound 9.20, 2,3-Dihydro-4,5-dimethyl-1-(3-chlorophenylamino)-1H-imidazole-2-thione], the melting point came to 234 °C.

Consider `Cc1[nH]c(=S)n(Nc2ccccc2)c1C` [Compound 9.21, 2,3-Dihydro-4,5-dimethyl-1-(phenylamino)-1H-imidazole-2-thione], for which the melting point fell in the range of 217 to 219 °C.

On to `Cc1cccc(Nn2c(C)c(C)[nH]c2=S)c1` [Compound 9.22, 2,3-Dihydro-4,5-dimethyl-1-(3-methylphenylamino)-1H-imidazole-2-thione], for which the melting point worked out at 230 °C.

In turn, `Cc1cccc(Nn2c(-c3ccccc3)c(C(C)C)[nH]c2=S)c1` [Compound 9.23, 2,3-Dihydro-4-isopropyl-1-(3-methylphenylamino)-5-phenyl-1H-imidazole-2-thione] displayed a melting point of 220 to 222 °C.

In turn, `CCc1[nH]c(=S)n(Nc2cccc(Cl)c2)c1-c1ccccc1` [Compound 9.24, 1-(3-Chlorophenylamino)-2,3-dihydro-4-ethyl-5-phenyl-1H-imidazole-2-thione] registered a melting point of 116 to 118 °C.

In turn, `S=c1[nH]c(-c2ccccc2)c(-c2ccccc2)n1Nc1cccc(Cl)c1` [Compound 9.26, 1-(3-Chlorophenylamino)-2,3-dihydro-4,5-diphenyl-1H-imidazole-2-thione] showed a melting point of 178 to 180 °C.

As to `COC(=O)c1c(C)[nH]c(=S)n1Nc1cccc(Cl)c1` [Compound 9.27, 1-(3-Chlorophenylamino)-2,3-dihydro-5-methoxycarbonyl-4-methyl-1H-imidazole-2-thione], the melting point was 194 to 196 °C.

`Cc1[nH]c(=S)n(Nc2cccc(Cl)c2)c1C(=O)O` [Compound 9.28, 1-(3-Chlorophenylamino)-2,3-dihydro-5-hydroxycarbonyl-4-methyl-1H-imidazole-2-thione] returned a melting point of 166 to 168 °C.

Take `COC(=O)c1[nH]c(=S)n(Nc2cccc(Cl)c2)c1C` [Compound 9.29, 1-(3-Chlorophenylamino)-2,3-dihydro-4-methoxycarbonyl-5-methyl-1H-imidazole-2-thione]: the melting point was 160 to 162 °C.

`COC(=O)c1cccc(-c2c(C)[nH]c(=S)n2Nc2cccc(C)c2)c1` [Compound 9.35, 2,3-Dihydro-4-methyl-1-(3-methylphenylamino)-5-(3-methoxycarbonylphenyl)-1H-imidazole-2-thione]: the melting point was in the range of 164 to 166 °C.

In turn, `Clc1cccc(Nn2cnc3c2CCCC3)c1` [Compound 13.04, 1-(3-Chlorophenylamino)-4,5,6,7-tetrahydro-1H-benzimidazole] yielded a melting point of 180 °C.

In turn, `Cc1ncn(Nc2ccccc2)c1-c1ccccc1` [Compound 13.05, 4-Methyl-5-phenyl-1-phenylamino-1H-imidazole] had a melting point of 165 to 167 °C.

Molecule `Cc1ncn(Nc2ccccc2)c1C` [Compound 13.06, 4,5-Dimethyl-1-phenylamino-1H-imidazole] showed a melting point of 178 °C.

In turn, `Cc1ncn(Nc2cccc(Cl)c2)c1C` [Compound 13.07, 1-(3-Chlorophenylamino)-4,5-dimethyl-1H-imidazole] showed a melting point of 146 °C.

In the case of `Cc1cccc(Nn2cnc(C)c2C)c1` [Compound 13.08, 4,5-Dimethyl-1-(3-methylphenylamino)-1H-imidazole], the melting point worked out at 144 °C.

Regarding `Cc1ncn(Nc2ccc(F)cc2)c1-c1ccccc1` [Compound 13.10, 1-(4-Fluorophenylamino)-4-methyl-5-phenyl-1H-imidazole], the melting point is 155 °C.

Take `CCc1ncn(Nc2cccc(C)c2)c1-c1ccccc1` [Compound 13.11, 4-Ethyl-1-(3-methylphenylamino)-5-phenyl-1H-imidazole]: the melting point was in the range of 158 to 160 °C.

With `Cc1cc(C)cc(Nn2cnc(C)c2-c2ccccc2)c1` [Compound 13.13, 1-(3,5-Dimethylphenylamino)-4-methyl-5-phenyl-1H-imidazole], the melting point fell in the range of 154 to 156 °C.

`COc1cccc(Nn2cnc(C)c2-c2ccccc2)c1` [Compound 13.14, 1-(3-Methoxyphenylamino)-4-methyl-5-phenyl-1H-imidazole] came in with a melting point of 156 to 158 °C.

Consider `Cc1cccc(Nn2cnc(C)c2-c2cccc(C#N)c2)c1` [Compound 13.16, 5-(3-Cyanophenyl)-4-methyl-1-(3-methylphenylamino)-1H-imidazole], for which the melting point lay within 138 to 140 °C.
